Reference: ChEMBL document CHEMBL1201862, “PubChem BioAssay data set” (2004)
Calls of active or inactive are those of the source.

Columns and labels:
[1] = biological target: T1, Ubiquitin-conjugating enzyme E2 N (Homo sapiens, UniProt P61088); type: functional;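 further: Dose-response confirmation in a TR-FRET assay detecting UBC13-driven polyubiquitin chain formation, inhibition measured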
T1 sequence (P61088 whole entry): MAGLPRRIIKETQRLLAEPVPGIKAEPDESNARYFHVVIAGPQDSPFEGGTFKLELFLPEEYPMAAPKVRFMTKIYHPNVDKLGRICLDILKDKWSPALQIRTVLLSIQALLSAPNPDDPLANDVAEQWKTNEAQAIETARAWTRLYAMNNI

[2] = biological target: Voltage-dependent T-type calcium channel subunit alpha-1H (Homo sapiens, UniProt O95180); type: functional;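 further: channel activity triggered by adding a high calcium stimulation buffer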
[3] = biological target: T2, Endoribonuclease toxin MazF (Escherichia coli K-12, UniProt P0AE70); assay: substrate-only fluorescence increase artefacts – biochemical, single-stranded RNase substrate, counter-screen for MazEF activator project, dose response (AID 588502); type: functional
T2 sequence (P0AE70 whole entry): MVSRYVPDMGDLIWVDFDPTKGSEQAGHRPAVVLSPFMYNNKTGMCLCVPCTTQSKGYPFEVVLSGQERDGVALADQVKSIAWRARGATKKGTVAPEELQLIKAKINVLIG

[4] = biological target: T2, Endoribonuclease toxin MazF; assay: activation of MazEF endoribonuclease cleavage – biochemical, fluorescence, single-stranded RNA substrate, uHTS hits, dose response (AID 588481); type: functional
[5] = viability of PTEN-deleted HCT116 cells – cell-based, HCT116 PTEN knockout, dose response (AID 1047); type: functional;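 further: HCT116 colon tumor cells with PTEN knocked out; cells exposed to compound for 60 hours before readout; potency for loss of cell viability measured by luminescence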
[6] = viability of HCT116 lacking mutant beta-catenin – cell-based, human colon tumor, dose response (AID 1045); type: functional;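 further: HCT116 colon tumor cells with beta catenin knocked out; cells exposed to compound for 60 hours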
[7] = microbe, parasite or virus in culture; type: functional; conditions: Mycobacterium tuberculosis
[8] = Luminescence Cell-Based Dose Retest to Confirm Inhibitors of Cancer Stem Cells. [Related pubchem assays (depositor defined):AID2717, AID2721]; type: functional; conditions: Homo sapiens
H9c2 = assay: cells; type: functional, cell-based; conditions: Rattus norvegicus, H9c2, Myocardium;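 further: confirmatory concentration-response retest of ultra-high-throughput screening hits for modulation of myocardial damage; cell death induced by hydrogen peroxide oxidative stress; compound pretreatment for 60 min then peroxide exposure for 2 h; potency is for protecting the cells against peroxide damage rather than for killing them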
[9] = biological target: T3, Carboxy-terminal domain RNA polymerase II polypeptide A small phosphatase 1 (Homo sapiens, UniProt Q9GZU7); assay: CTDSP1 inhibitors, concentration-response, biochemical, absorbance readout, ultra-high-throughput screen actives (AID 540297); type: functional
T3 sequence (Q9GZU7 whole entry): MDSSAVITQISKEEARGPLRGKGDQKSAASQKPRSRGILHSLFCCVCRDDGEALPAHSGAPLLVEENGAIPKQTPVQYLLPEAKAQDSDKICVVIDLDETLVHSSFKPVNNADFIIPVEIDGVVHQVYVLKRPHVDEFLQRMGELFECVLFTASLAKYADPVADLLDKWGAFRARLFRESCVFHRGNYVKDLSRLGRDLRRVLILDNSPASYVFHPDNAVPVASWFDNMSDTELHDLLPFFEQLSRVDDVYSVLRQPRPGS

[10] = NIH3T3 cell viability loss – ATP luminescence, mouse fibroblasts, counter-screen, dose response (AID 2010); type: functional, cell-based;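 further: cells exposed to compound for about 90 hours before reading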
[11] = Trypanosoma cruzi growth suppression in host cells – NIH3T3 host cells, beta-gal luminescence, confirmation (AID 2044); type: functional, cell-based;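 further: intracellular parasites grown in NIH/3T3 mouse fibroblasts as host cells; luminescent beta-galactosidase reporter signal from transgenic T. cruzi replicating inside host cells; inhibitors lower the luminescence signal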
[12] = biological target: T4, Calpain-2 catalytic subunit (Sus scrofa, UniProt P43367); assay: m-calpain protease blockers, concentration series – biochemical, fluorogenic peptide substrate, dose response (AID 1420); type: functional
T4 sequence (P43367 whole entry): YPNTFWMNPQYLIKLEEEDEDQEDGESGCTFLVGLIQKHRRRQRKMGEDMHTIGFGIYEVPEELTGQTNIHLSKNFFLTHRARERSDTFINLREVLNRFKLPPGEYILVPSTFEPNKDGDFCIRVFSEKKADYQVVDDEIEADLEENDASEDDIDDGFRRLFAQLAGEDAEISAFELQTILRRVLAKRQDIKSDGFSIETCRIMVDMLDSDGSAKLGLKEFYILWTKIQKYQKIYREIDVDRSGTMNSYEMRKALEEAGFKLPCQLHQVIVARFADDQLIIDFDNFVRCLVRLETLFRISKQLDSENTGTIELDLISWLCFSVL

[13] = HIV-1 AD8 envelope cell-cell fusion blockers – cherry-pick, dose response (AID 652062); type: functional, cell-based;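 further: luciferase signal from cell-cell fusion driven by HIV-1 clade B AD8 Env; potency is for inhibitors of fusion seen as a drop in luminescence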
[14] = blockers of HIV-1 envelope-mediated cell-cell fusion – cherry-pick, dose response (AID 652057); type: functional, cell-based
[15] = biological target: T5, Corticotropin-releasing factor receptor 2/Corticotropin-releasing factor-binding protein (Homo sapiens, UniProt P24387+Q13324); assay: activators of CRF receptor 2 with binding protein – uHTS hits, confirmation (AID 602473); type: functional; conditions: read-out: EC50_Mean
T5 sequence (Q13324 whole entry): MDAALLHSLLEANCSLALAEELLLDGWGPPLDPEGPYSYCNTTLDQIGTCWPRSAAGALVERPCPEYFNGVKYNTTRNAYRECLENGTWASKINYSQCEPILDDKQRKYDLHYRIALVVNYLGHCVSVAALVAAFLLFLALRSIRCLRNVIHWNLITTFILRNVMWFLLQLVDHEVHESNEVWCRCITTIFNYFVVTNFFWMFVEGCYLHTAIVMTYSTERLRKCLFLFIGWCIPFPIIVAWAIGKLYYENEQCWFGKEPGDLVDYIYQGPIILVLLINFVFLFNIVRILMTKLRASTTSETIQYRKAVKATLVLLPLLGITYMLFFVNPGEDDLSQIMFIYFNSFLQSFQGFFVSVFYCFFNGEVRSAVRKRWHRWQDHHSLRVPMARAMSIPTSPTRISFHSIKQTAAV
T5 sequence (P24387 whole entry): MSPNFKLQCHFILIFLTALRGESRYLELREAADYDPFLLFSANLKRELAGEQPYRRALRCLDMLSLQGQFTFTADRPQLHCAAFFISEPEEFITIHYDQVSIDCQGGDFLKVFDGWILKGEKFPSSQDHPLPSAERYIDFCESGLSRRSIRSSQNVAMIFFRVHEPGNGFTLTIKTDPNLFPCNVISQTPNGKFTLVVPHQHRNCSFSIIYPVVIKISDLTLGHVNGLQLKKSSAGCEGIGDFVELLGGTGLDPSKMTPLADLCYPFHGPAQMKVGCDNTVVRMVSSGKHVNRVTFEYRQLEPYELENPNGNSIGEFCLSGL

[16] = toxicity to human hepatoma HepG2 cells – cell-based, cherry-picked samples, cytotoxicity control, dose response (AID 1159577); type: functional
[17] = P. falciparum Dd2 growth inhibitors, dose response, SYBR Green, cherry-picked samples (AID 1159567); type: functional, cell-based
Cytochrome P450 1A2 = biological target: T6, Cytochrome P450 1A2 (Homo sapiens, UniProt P05177);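 further: PubChem cytochrome P450 panel assay, CYP1A2 panel member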
T6 sequence (P05177 whole entry): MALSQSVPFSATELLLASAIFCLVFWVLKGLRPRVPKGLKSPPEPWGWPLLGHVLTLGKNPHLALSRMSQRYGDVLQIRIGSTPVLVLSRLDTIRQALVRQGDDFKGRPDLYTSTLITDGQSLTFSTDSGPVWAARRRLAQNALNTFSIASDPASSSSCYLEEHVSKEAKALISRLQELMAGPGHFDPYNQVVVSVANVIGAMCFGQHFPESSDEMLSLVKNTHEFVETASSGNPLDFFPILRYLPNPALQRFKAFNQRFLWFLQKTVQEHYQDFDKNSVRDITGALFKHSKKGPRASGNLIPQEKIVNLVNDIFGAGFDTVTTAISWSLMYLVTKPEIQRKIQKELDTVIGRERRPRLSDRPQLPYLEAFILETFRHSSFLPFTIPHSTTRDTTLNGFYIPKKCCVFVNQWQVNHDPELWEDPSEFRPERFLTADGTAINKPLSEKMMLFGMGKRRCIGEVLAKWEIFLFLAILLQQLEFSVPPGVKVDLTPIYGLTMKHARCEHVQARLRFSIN

Chain of Voltage-dependent T-type calcium channel subunit alpha-1H (O95180 whole entry): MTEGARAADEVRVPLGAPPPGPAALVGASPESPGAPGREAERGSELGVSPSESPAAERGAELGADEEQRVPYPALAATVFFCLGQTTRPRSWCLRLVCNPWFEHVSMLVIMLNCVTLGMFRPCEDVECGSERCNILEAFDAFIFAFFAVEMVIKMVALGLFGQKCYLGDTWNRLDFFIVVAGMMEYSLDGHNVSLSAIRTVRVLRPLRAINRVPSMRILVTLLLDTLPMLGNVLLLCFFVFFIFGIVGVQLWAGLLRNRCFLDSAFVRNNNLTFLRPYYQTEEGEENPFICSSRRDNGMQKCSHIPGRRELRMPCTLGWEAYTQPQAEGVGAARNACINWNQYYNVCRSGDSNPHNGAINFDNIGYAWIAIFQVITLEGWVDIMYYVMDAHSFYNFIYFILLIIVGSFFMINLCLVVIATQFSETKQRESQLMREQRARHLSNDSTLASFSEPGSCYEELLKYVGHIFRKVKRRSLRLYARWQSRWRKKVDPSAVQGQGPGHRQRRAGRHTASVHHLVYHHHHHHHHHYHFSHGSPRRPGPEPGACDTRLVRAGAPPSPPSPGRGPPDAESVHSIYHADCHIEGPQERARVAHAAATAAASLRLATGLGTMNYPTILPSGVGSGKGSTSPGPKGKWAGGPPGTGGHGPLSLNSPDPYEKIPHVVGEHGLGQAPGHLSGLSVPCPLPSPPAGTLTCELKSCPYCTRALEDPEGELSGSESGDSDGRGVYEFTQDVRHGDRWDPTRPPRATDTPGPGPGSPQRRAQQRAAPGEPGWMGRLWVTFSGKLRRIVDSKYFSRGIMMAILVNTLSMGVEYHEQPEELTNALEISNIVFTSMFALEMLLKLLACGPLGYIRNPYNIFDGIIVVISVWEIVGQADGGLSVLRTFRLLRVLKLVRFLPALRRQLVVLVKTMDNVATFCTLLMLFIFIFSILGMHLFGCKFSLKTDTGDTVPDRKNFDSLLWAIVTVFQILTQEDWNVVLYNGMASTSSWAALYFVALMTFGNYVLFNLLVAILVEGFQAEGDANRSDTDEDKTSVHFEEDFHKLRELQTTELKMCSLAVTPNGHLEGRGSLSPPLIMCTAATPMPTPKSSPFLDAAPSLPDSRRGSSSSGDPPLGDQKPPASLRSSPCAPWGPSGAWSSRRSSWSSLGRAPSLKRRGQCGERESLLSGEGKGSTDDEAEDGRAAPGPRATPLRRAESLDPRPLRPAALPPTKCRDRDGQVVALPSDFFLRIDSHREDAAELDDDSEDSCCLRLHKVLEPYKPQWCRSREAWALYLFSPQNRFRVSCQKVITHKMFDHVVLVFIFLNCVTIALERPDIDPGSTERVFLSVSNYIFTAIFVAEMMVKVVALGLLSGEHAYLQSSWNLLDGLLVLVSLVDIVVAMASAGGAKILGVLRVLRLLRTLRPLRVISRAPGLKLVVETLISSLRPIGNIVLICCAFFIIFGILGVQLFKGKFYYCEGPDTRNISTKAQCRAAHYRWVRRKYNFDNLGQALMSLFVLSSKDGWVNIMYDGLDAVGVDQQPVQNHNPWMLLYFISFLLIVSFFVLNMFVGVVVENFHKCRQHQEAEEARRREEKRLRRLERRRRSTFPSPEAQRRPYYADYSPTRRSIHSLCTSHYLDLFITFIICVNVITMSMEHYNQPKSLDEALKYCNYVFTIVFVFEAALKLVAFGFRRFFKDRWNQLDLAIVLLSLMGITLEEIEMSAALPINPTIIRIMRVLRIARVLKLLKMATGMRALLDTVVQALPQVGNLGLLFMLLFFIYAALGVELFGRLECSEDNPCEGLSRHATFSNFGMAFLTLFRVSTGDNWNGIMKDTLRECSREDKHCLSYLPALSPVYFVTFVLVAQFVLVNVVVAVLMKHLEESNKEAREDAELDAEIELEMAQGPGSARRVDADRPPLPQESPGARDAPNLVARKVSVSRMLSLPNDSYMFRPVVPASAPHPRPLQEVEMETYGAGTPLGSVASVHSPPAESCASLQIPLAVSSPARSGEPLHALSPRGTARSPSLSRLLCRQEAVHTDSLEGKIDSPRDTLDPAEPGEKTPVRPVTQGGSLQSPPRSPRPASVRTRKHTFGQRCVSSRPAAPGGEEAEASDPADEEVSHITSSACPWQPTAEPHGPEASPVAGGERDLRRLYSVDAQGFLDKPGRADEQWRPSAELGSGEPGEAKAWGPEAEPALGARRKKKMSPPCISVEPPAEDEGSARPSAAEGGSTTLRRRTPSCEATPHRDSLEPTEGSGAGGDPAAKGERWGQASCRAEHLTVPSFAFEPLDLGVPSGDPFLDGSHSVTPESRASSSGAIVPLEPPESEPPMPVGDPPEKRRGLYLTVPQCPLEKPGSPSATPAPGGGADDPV

COc1ccc(-c2nnc(SCC(=O)Nc3cc(F)ccc3C)o2)cc1
IC50 [1]: > 20 µM (inactive)

Nc1c(C(=O)C2CC2)sc2nc(-c3ccccc3)cc(C(F)(F)F)c12
EC50 [2]: 2.51 µM (active)

O=[N+]([O-])c1ccc(/C=C/c2ccc3cccc(O)c3n2)cc1
EC50 [3]: > 99 µM (inactive)
EC50 [4]: > 99 µM (inactive)

CN1CCN(Cc2nc3ccccc3c(=O)n2Cc2nc(-c3ccc4ccccc4c3)cs2)CC1
EC50 [5]: 4.11 µM (active)
EC50 [6]: 4.02 µM (active)
CC50 [7]: 6.44 µM (active)
AC50 [8]: 4.28 µM (active)

CCOc1ccc(-c2n[nH]cc2Oc2cccc(OC)c2)c(O)c1
IC50 [1]: > 20 µM (inactive)

COc1ccccc1N1CCN(C(=O)C(Sc2ccccc2)c2ccccc2)CC1 (stereo not given)
EC50 [2]: 4.93 µM (active)

CCN(CC)S(=O)(=O)c1ccc(Nc2nc3ccccc3n3nnnc23)cc1
EC50 [5]: 22.1 µM (active)
EC50 [6]: 35.3 µM (active)
IC50 (H9c2): > 79 µM (inactive)

Cc1ccc(-c2csc(NC(=O)c3cccc(N4C(=O)CCC4=O)c3)n2)o1
EC50 [2]: 3.78 µM (active)

O=C(/C=C/c1ccc(Br)cc1)c1ccco1
EC50 [5]: 11.5 µM (active)
EC50 [6]: 10.9 µM (active)

O=C(CSc1nc(N2CCCCC2)nc(N2CCCCC2)n1)N1CCN(c2ccccc2)CC1
EC50 [2]: 5.36 µM (active)

CCC(=O)N1c2ccc(C)cc2C2=NN=C(S)NC21O (stereo not given)
IC50 [1]: > 20 µM (inactive)

CCn1c(/C=C/c2c(C)n(CC)c3ccccc23)nc2ccccc2c1=O
EC50 [3]: > 99 µM (inactive)
EC50 [4]: > 99 µM (inactive)

COc1ccc(Br)cc1/C=C(\C(=O)O)c1ccc(S(=O)(=O)N2CCCC2)s1
IC50 [9]: 8.63 µM (active)

Cc1cc(C)c(C#N)c(SCC(=O)c2cccs2)n1
EC50 [3]: > 99 µM (inactive)
EC50 [4]: 18 µM (active)

COC(=O)c1[nH]c2cc(OC)ccc2c1NC(=O)CN1CCN(c2cccc(C)c2)C(C)C1 (stereo not given)
CC50 [7]: 30.6 µM (active)

Cc1ccc(C(NC(=O)N2CCOCC2)=C(Cl)Cl)cc1F
EC50 [5]: 6.69 µM (active)
EC50 [6]: 4.71 µM (active)

O=c1c2cc(NC(=S)NCCCN3CCC(Cc4ccccc4)CC3)ccc2nc2n1CCCCC2
IC50 [1]: > 20 µM (inactive)
EC50 [10]: > 60 µM (not active)
EC50 [11]: 2.09 µM (active)
AC50 [8]: 9.58 µM (active)

CC(C)COP(=O)(OCC(C)C)C(Nc1ccccc1)c1ccc2c(c1)OCO2 (stereo not given)
IC50 (H9c2): > 79 µM (inactive)
IC50 [12]: 11.4 µM (not active)

C[C@H](CO)N1C[C@H](C)[C@H](CN(C)S(=O)(=O)c2cccs2)Oc2ccc(NC(=O)Cc3ccccc3)cc2CC1=O
AC50 [13]: < 0.26 µM (active)
AC50 [14]: < 0.26 µM (active)

Cc1ccc(-n2nnnc2SCc2nc3sc(C)c(C)c3c(=O)[nH]2)cc1
EC50 [3]: > 99 µM (inactive)
EC50 [4]: > 99 µM (inactive)

Cc1cc(/C=C2\C(=O)NC(=O)N(c3cccc(Br)c3)C2=O)c(C)n1C
EC50 [3]: > 99 µM (inactive)
EC50 [4]: > 99 µM (inactive)
EC50 [15]: 26.2 µM (active)

CCOc1ccc(C2CC(c3cccc(OC)c3OC)n3nnnc3N2)cc1Cl (stereo not given)
EC50 [2]: 2.66 µM (active)

Cc1cc(NS(=O)(=O)c2ccc(NC(=S)NC(=O)c3ccc(C(C)(C)C)cc3)cc2)no1
IC50 [12]: 26.1 µM (not active)

Cc1ccccc1S(=O)(=O)N1CC(=O)N2[C@H](C1)[C@@H](c1ccc(C#Cc3ccccc3)cc1)[C@@H]2CO
AC50 [16]: 15.8 µM (active)
AC50 [17]: 3.52 µM (active)

CC(=O)C(C[N+]1(C)CCCCC1)=NO
IC50 [9]: 3.4 µM (active)

Cn1c(N)c(C(=O)COC(=O)CCCc2nc3ccccc3s2)c(=O)n(C)c1=O
IC50 [12]: > 50 µM (not active)

Cc1ccc(CCNC(=O)c2ccc3nc4ccccc4c(=O)n3c2)cc1
IC50 [9]: 14.2 µM (active)

Cc1ccc(-c2cc(C(F)F)n3ncc(C(=O)Nc4c(C)nn(Cc5ccccc5Cl)c4C)c3n2)cc1
EC50 [5]: 8.84 µM (active)
EC50 [6]: 8.23 µM (active)

C[C@H](CO)N1C[C@H](C)[C@H](CN(C)C(=O)[C@H](C)c2ccccc2)OCc2ccccc2-c2c(n(C)c3ccccc23)C1=O
AC50 [16]: 34.4 µM (active)
AC50 [17]: 4.15 µM (active)

CN(C)C(=O)c1cccc(-c2cccc(-c3nc(C(=O)NCc4ccccc4)cc4c3[C@@H](CCO)N([S@+]([O-])C(C)(C)C)C4)c2)c1
AC50 [16]: 17.5 µM (active)
AC50 [17]: 1.17 µM (active)

O=C(NCc1ccco1)c1ccc2c(=O)n(Cc3ccco3)c(SCC(=O)N3CCCC3)nc2c1
IC50 [9]: 6.12 µM (active)

O=C(CCC(=O)N1CCN(S(=O)(=O)c2ccc(Cl)cc2)CC1)Nc1cccc(Br)c1
IC50 [12]: 24.9 µM (not active)

COc1ccc(N2CCN(Cc3cc4c(cc3O)CCC4)CC2)cc1
CC50 [7]: > 40 µM (active)

O=C(N/N=C/c1cccc(OC2CSC2)c1)c1ccccc1O
IC50 [9]: 6.78 µM (active)
AC50 (Cytochrome P450 1A2): 3.16 µM (inconclusive)

C/C(=N\NC(=O)CC(C)C)c1c(C(F)(F)F)nn(-c2nc3ccccc3s2)c1O
CC50 [7]: 37.4 µM (active)

CCc1ccc(-c2nc(CN3CCC(C(=O)N4CCN(c5ccccn5)CC4)CC3)c(C)o2)cc1
EC50 [5]: 7.51 µM (active)
EC50 [6]: 7.28 µM (active)
